Assay results: patent publication US20130252821A1, “METHODS AND COMPOSITIONS FOR THE TREATMENT AND DIAGNOSIS OF DISEASES CHARACTERIZED BY VASCULAR LEAK, HYPOTENSION, OR A PROCOAGULANT STATE” (Beth Israel Deaconess Medical Center, Inc., priority 2005, published 2013)

How the values were obtained:
p190RhoGAP [1] = assay: In vivo delivery of siRNA, p190RhoGAP in mouse lung (Western); conditions: 10 μg siRNA, hydrodynamic tail vein delivery
Protocol: Mice were treated as above and lungs were harvested, fixed in 10% formalin, embedded in paraffin, sectioned, and stained with hematoxilin and eosin. In Vivo Delivery of siRNA: Delivery of siRNA into mice was performed by TransIT® Hydrodynamic delivery solution (Mires, Madision, Wis.) per the manufacturer's instruction. Mice were injected with either 10 μg control siRNA or 10 μg p190RhoGAP siRNA in 2 nil delivery solution injected into the tail vein over 7 seconds. Four days later, p190RhoGAP knockdown was confirmed by lysing organs in RIPA buffer and performing Western analysis as outlined above. In vivo permeability and histological examination were performed as described above.

Rac1 = Rac1 activity assay (pull-down); type: cell-based, human; conditions: p190RhoGAP siRNA
Protocol: (§1) These were performed and quantified using the commercially available kit according to the manufacturer's instruction (Cytoskeleton, Denver, Colo.). After signal starvation, HMVEC-L were treated with vehicle, Ang-1 (100 ng/ml) with or without inhibitor for the indicated time and harvested with lysis buffer. Following a brief centrifugation to remove cell debris, lysates from the cells containing equivalent protein concentrations were incubated for 60 minutes with 40 μL slurry of a GST-fusion protein composed of Rac1 or RhoA effector proteins coupled to agarose beads. After washing with lysis buffer, samples were subjected to immunoblotting and detected with anti-Rac1 or anti-RhoA antibody (Santa Cruz Biotechnology, Santa Cruz, Calif.). Whole cell lysates were also run to determine the total amount of Rac1 or RhoA protein.

HMVEC-L monolayer = assay: Measurement of endothelial permeability in vitro (FITC-albumin); type: cell-based, human; conditions: p190RhoGAP siRNA
Protocol: (§2) Coster Transwell membranes (Corning Inc. Corning, N.Y.) were coated with 0.5% Gelatin and cells were grown until confluence. Vehicle or proteins with FITC-albumin (1 mg/ml) was added to the luminal chamber for 4 hours, and samples were taken from both the luminal and abluminal chamber for fluorometry analysis. The readings were converted with the use of a standard curve to albumin concentration. These concentrations were then used in the following equation to determine the permeability coefficient of albumin (Pa).
(§3) [A] is abluminal concentration; t is time in seconds; A is area of membrane in cm^2; V is volume of abluminal chamber; and [L] is luminal concentration. siRNA Transfection: HMVEC-Ls were seeded and control small interfering RNA (siRNA) (Ambion, Ausin, Tex.) or siRNA directed to human p190RhoGAP (5′-[…]-3′ SEQ ID NO: 5 and 5′-[…]-3′ SEQ ID NO: 6) was transfected using SilentFect Lipid reagent (Bio-Rad) according to the manufacturer's instructions. The cells were used for each experiment 3 days after transfection. Almost 90-100% cells were transfected with siRNA (checked by fluorescent labeled siRNA). Down-regulation of p190RhoGAP was verified by immunoblotting. We tested two different siRNA for the experiment and obtained similar results.

RhoA [2] = assay: Rho activity assay (pull-down) in HMVEC-L; type: cell-based, human; conditions: p190RhoGAP siRNA
Protocol: as §1

p190RhoGAP [3] = assay: siRNA knockdown of p190RhoGAP in HMVEC-L (immunoblot); type: cell-based, human
Protocol: as §3

[4] = tested on: mice (female FVB strain), lung; assay: In vivo permeability assay (Evans blue, LPS); set-up: species or system mouse; conditions: p190RhoGAP siRNA, endotoxin plus Ang-1
Protocol: Mice (8-12 weeks old, female FVB strain) were pretreated with Ang-1 (10 mcg, ip). 8 hours after the first Ang-1 injection, the second dose of Ang-1 (10 mcg, ip) and LPS (100 μg, ip) were co-injected. Lung permeability was assessed 16 hours after the second injection. Mice were anesthetized with Avertin (2,2,2-Tribromoethanol) and 2% Evans blue (50 μl) was then injected into the retro-orbital sinus. Ten minutes after Evans blue injection, mice were sacrificed and perfused with PBS with 2 mM EDTA for 10 minutes through a cannula placed in the right ventricle. […] Organs were then harvested and homogenized in 1.5 nil formamide. Evans blue was extracted by incubating the samples at 70° C. for 24 hours, and the concentration of Evans blue was estimated by dual-wavelength spectrophotometer (620 and 740 nm). The following formula was used to correct optical densities (E) for contamination with heme pigments: E620 (corrected)=E620−(1.426XE740+0.030).

[5] = tested on: myosin light chain (MLC) phosphorylation in HMVECs; assay: MLC phosphorylation assay (Western blot); type: cell-based, human; conditions: for effect on Ang-2-induced phosphorylation of MLC: inhibitor 10 μM
Protocol: After signal starvation with 0.25% FBS EBM-2 for 24 h, cells were treated with 100 ng/ml Ang-2 or vehicle for 0, 1, 3, and 6 hours. Phosphorylated myosin light chain (MLC-p) (phospho-serine 19) and GAPDH were detected by Western blot analysis. For human subject serum effects on HMVECs, serum was diluted to 5% with EBM-2 and filtered with low protein binding PVDF membrane (0.22 μm, Millipore Corp, Bedford, Mass.). Anti-MLC-phospho-serine-19 Ab was obtained from Abcam Inc.

HMVEC monolayers = assay: Immunofluorescence of endothelial architecture (F-actin, VE-cadherin); type: cell-based, human; conditions: for reversal of Ang-2 induced thick actin stress fibers and paracellular gaps: Ang-2 100 ng/ml, inhibitor 10 μM, 5 hours
Protocol: HMVEC were grown to confluence on glass coverslips coated with 1% gelatin. The cells were fixed for 10 minutes in 4% paraformaldehyde in PBS, incubated for 5 min in 0.5% Triton X-100 in PBS. After blocking, the monolayers were processed for staining with anti-VE-cadherin monoclonal antibody (BD Pharmingen, San Diego, Calif.) and Alexa Fluoro 488 goat anti-mouse IgG, rhodamine phalloidin (Molecular Probe, Eugene, Oreg.) for F-actin staining and TOPRO-3-iodine (Molecular Probe) for nuclear staining. Fluorescence images were obtained using a Bio Rad MRC confocal fluorescence microscope. For human subject serum experiments, serum was diluted to 10% with EBM-2 and filtered with low protein binding PVDF membrane (0.22 μm, Millipore Corp) prior to application on endothelial cell monolayers.

healthy adult mice [6] = assay: Lung wet-to-dry weight ratio; type: in vivo, mouse; conditions: Ang-2 treatment for 16 hours
Protocol: Lung wet weight (W) was determined immediately after removal of the right lung. Lung dry weight (D) was determined after the lung had been dried in an oven at 50° C. for 24 hours. The W/D ratio was calculated by dividing the wet weight by the dry weight.

RhoA [7] = assay: Rho activity pull-down assay; type: cell-based, human; conditions: Ang-2 100 ng/ml
Protocol: RhoA activity assay was performed and quantified using the RhoA activation assay kit according to the manufacturer's instruction (Cytoskeleton, Denver, Colo.). Lysates from control and Ang-2-treated cells containing equivalent protein concentrations were rotated for 60 minutes with 40 μl slurry of a GST-fusion protein composed of the Rho-binding domain of the specific RhoA effector rhotekin coupled to agarose beads. Beads were collected by centrifugation and washed three times with lysis buffer. Whole cell lysates from both control and Ang-2-treated cells were also run to determine baseline levels of total RhoA protein. Separated proteins were transferred to PVDF and immunoblotted with a monoclonal antibody to RhoA (Santa Cruz Biotechnology, Santa Cruz, Calif.).

healthy adult mice [8] = assay: Evans blue permeability assay after systemic Ang-2; type: in vivo, mouse; conditions: Ang-2 10 μg i.p., 16 hours
Protocol: Mice were injected with 10 μg of Ang-2 or vehicle intraperitoneal (i.p.) and, after 16 hours, were anesthetized with Avertin (2,2,2-tribromoethanol). 2% Evans blue (50 μl) was then injected into the retro-orbital sinus. (In preliminary experiments with control mice, n=6, we confirmed that the retro-orbital sinus provided a route of intravascular injection that allowed near-100% delivery of Evans blue in a reproducible fashion.) 10 minutes after Evans blue injection, mice were sacrificed and perfused with PBS for 10 minutes through a cannula placed in the right ventricle. Blood and PBS were vented through an incision in the vena cava. […] Washout of intravascular contents was also confirmed histologically after 10 minutes PBS perfusion. After homogenization in 1.5 ml formamide, Evans blue was extracted by incubating the samples at 70° C. for 24 hours, and the concentration of Evans blue was estimated by dual-wavelength spectroscopy to correct for heme E620 nm (corrected)=E620 nm−(1.426*E740 nm+0.030).

Tie-2 = Tie-2 phosphorylation (immunoprecipitation and Western blot); type: cell-based, human; conditions: HMVECs stimulated with Ang-2 100 ng/ml
Protocol: 200 μg of total protein were incubated with anti-Tie2 antibody for 3 hours, followed by incubation with protein A sepharose (Zymed, San Francisco, Calif.) for 2 hours at 4° C. After washing the beads, proteins were eluted by heating in SDS-sample buffer and detected by Western blot analysis with Anti-phospho-tyrosine (clone 4G10, Upstate Cell Signaling Solutions) as described before.

healthy adult mice [9] = assay: Lung histology after systemic Ang-2; type: in vivo, mouse; conditions: 3 hour after systemic Ang-2 administration
Description: Lungs were harvested, fixed in 10% formalin, embedded in paraffin, sectioned, and stained with hematoxylin and eosin.

HMVEC monolayer = assay: FITC-albumin permeability assay; type: cell-based, human; conditions: Ang-2 400 ng/ml, 8 hours
Protocol: as §2, with “HMVEC monolayer permeability was determined with the use of FITC-labeled bovine serum albumin (Sigma) as described elsewhere (Tinsley et al., Am. J. Physiol Cell Physiol. 279: C1285-1289 (2000)). Coster” for “Coster”, “fibronectin” for “0.5% Gelatin”, “Ang-2 (400 ng/ml)” for “proteins”, “(final 1” for “(1”, “8” for “4”
where [A] is abluminal concentration; t is time in seconds; A is area of membrane in cm2; V is volume of abluminal chamber; and [L] is luminal concentration. siRNA transfection of endothelial cells: HMVECs were seeded on 10 cm dishes for Western blot (or on 1% gelatin-coated coverslips for immunohistochemistry experiments) 24 hour before experiments. […] of validated, annealed small interfering RNA (siRNA) (Ambion, Inc. Austin Tex.) directed to human Tie-2 was transfected using silentFect Lipid reagent (Bio-Rad) according to manufacturer's instructions. Three days after transfection, cells were used for experiments. […]

p190RhoGAP siRNA: siRNA directed to human p190RhoGAP (SEQ ID NO: 5 and 6) (chain 1 GGAUUGUGUGGAAUGUAAG; chain 2 CUUACAUUCCACACAAUCC; listed as RNA, chemistry not given here) [reference compound]
p190RhoGAP expression in lung tissue (p190RhoGAP [1]): diminished p190RHoGAP expression | effect on Ang-1-induced Rac1 activation (Rac1): did not affect | effect on basal permeability (HMVEC-L monolayer): little effect | effect on rescue by Ang-1 (HMVEC-L monolayer; endotoxin plus Ang-1): prevent the rescue effect of Ang-1 | effect on Ang-1-induced RhoA inhibition (RhoA [2]): abolish | block of p190RhoGAP expression (p190RhoGAP [3]): 90% | effect on protection by Ang-1 in the lung [4]: sufficient to block the protective effect of Ang-1

CC(C)=C[C@H](O)C1=C[C@@H](O)[C@@H]2O[C@@H]2C1=O [Panepoxydone]
effect on Ang-2 mediated MLC phosphorylation ([5]; panepoxydone added to EC monolayers): marked inhibition

O=S(=O)(c1cccc2c(I)cccc12)N1CCCNCC1 [ML-7, reference compound]
reversal of Ang-2 induced thick actin stress fibers and paracellular gaps (HMVEC monolayers): partially reversed | effect on Ang-2-induced phosphorylation of MLC ([5]; Ang-2 100 ng/ml): partially inhibited

C[C@@H](N)[C@H]1CC[C@H](C(=O)Nc2ccncc2)CC1 [Y27632, reference compound]
reversal of Ang-2 induced thick actin stress fibers and paracellular gaps (HMVEC monolayers): completely reversed | effect on Ang-2-induced phosphorylation of MLC ([5]; Ang-2 100 ng/ml): completely abolished

B1: Ang-2: Human recombinant angiopoietin-2 purchased from R&D systems; Tie-2 ligand (protein, listed as Homo sapiens)
chain: MWQIVFFTLSCDLVLAAAYNNFRKSMDSIGKKQYQVQHGSCSYTFLLPEMDNCRSSSSPYVSNAVQRDAPLEYDDSVQRLQVLENIMENNTQWLMKLENYIQDNMKKEMVEIQQNAVQNQTAVMIEIGTNLLNQTAEQTRKLTDVEAQVLNQTTRLELQLLEHSLSTNKLEKQILDQTSEINKLQDKNSFLEKKVLAMEDKHIIQLQSIKEEKDQLQVLVSKQNSIIEELEKKIVTATVNNSVLQKQQHDLMETVNNLLTMMSTSNSAKDPTVAKEEQISFRDCAEVFKSGHTTNGIYTLTFPNSTEEIKAYCDMEAGGGGWTIIQRREDGSVDFQRTWKEYKVGFGNPSGEYWLGNEFVSQLTNQQRYVLKIHLKDWEGNEAYSLYEHFYLSSEELNYRIHLKGLTGTAGKISSISQPGNDFSTKDGDNDKCICKCSQMLTGGWWFDACGPSNLNGMYYPQRQNTNKFNGIKWYYWKGSGYSLKATTMMIRPADF
lung wet/dry weight (W/D) ratio (healthy adult mice [6]): 6.13±0.03 | actin stress fibers and intercellular gaps (HMVEC monolayers; recombinant human Ang-2 100 ng/ml alone, HMVECs): induced the formation of thick actin stress fibers and intercellular gaps | active form of RhoA (Rho-GTP) (RhoA [7]): increased the active form of RhoA | time of peak Rho-GTP (RhoA [7]): peaking between 30 minutes and 1 hour | MLC phosphorylation on stimulation with Ang-2 alone ([5]; Ang-2 100 ng/ml, serum-starved HMVECs): elevated at 3 hours and 6 hours | extravasated Evans blue in intestines versus vehicle (healthy adult mice [8]): trend toward increased permeability | extravasated Evans blue in livers versus vehicle (healthy adult mice [8]): twofold increase | extravasated Evans blue in lungs versus vehicle (healthy adult mice [8]): threefold increase | effect on Tie-2 phosphorylation (Tie-2): inhibitory effect | lung histology (healthy adult mice [9]): increase in congestion and early extravasation into the interstitium | increase in permeability (Pa of FITC-albumin) compared with control (HMVEC monolayer): approximately 20%
